Results as given in patent US20240158413A1, “FUSED POLYCYCLIC SUBSTITUTED 5-CARBOXYLIC ACID THIENOPYRIMIDINE DIONE COMPOUND AND USE THEREOF” (SOTER BIOPHARMA PTE. LTD., priority 2021, published 2024).

Experiments:
[1] = molecular target: human gonadotropin-releasing hormone receptor (Homo sapiens (Human), UniProt P30968); assay: FLIPR calcium flow assay of inhibitory activity on gonadotropin-releasing hormone receptor in GnRH/HEK293 cells; assay type: cell-based; conditions: Ca2+ flow, agonist Leuprolide acetate, read-out: IC50 on inhibiting the activity of human gonadotropin-releasing hormone receptor
Protocol: Objective of assay: to detect the inhibitory activity of assay compounds on gonadotropin-releasing hormone receptor at the cellular level using FLIPR detection technology.
GnRH/HEK293 (human embryonic kidney cell 293) cultured cells in the logarithmic growth phase were washed with DPBS (Dulbecco's phosphate buffered saline) buffer, and an appropriate amount of 0.05% EDTA (ethylenediaminetetraacetic acid)-trypsin was added. The cells were placed in a carbon dioxide incubator at 37° C. for digestion for 1-2 minutes, and then removed from the incubator. A medium was added to the cells to terminate the digestion. Cells were dispersed by repeated pipetting and harvested by centrifugation. […]
On the next day, 20 μL, of 2×Fluo-4Direct™ buffer was added to each well, and the plate was incubated in a 5% CO2, 37° C. incubator for 50 minutes. […] The fluorescence signal was read. Then 10 μL of the reference compound as an agonist was added, and the fluorescent signal was read. EC50 was calculated, and the agonist with a concentration of 6×EC50 was prepared.
2 mM assay compounds and an appropriate concentration of reference compound were serially diluted 4-fold to 10 concentrations in ECHO, and 900 nL of that was transferred to a compound plate. […] The fluorescent signal was read. Then 10 μL of agonist with a concentration of 6×EC50 was added to the cell plate and the fluorescent signal was read. […]

[2] = test system: endometriotic lesion in mice; assay: In vivo efficacy evaluation in a mouse model of endometriosis
Text: Objective of assay: To evaluate the efficacy of the compound of the present disclosure in a mouse model of endometriosis.
Animal estrous cycle detection in 8-week-old C57BL6/J female mice: Through vaginal smear observation, mice that met the specific estrous cycle on the day of the assay were selected according to the actual smear results because the entire estrous cycle was about 4 days. Modeling: The uterine horns of donor mice in an estrous cycle were excised, and opened longitudinally. The excised biopsies were cut to a size of 2×2 mm. Recipient mice were anesthetized with isoflurane gas, and a 1 cm incision was made along the midline to expose the abdominal cavity. Endometriotic mice: four uterine fragments of donors were sutured to the peritoneal wall of mice in an estrous cycle; sham-operated mice: abdominal fat fragments of similar size were sutured. The grafted tissue as well as the abdominal muscle and skin were sutured using 8-0 black silk thread. Sham group (sham-operation group): the abdominal cavity of each mouse in the Sham group was opened to transplant fat fragments, and the rest of the steps were the same.
After 4 weeks of modelmg, a second laparotomy was performed, and the ectopic lesion volume (V1) was measured using a vernier caliper and calculated to determine the success of the modeling. Twelve mice with relatively uniform V1 were selected and divided into 2 groups with 6 nice in each group: Vehicle (vehicle control group) and drug group.
Sham group (sham-operation group, 6 animals): normal feeding; Vehicle group (vehicle control group, 6 animals); vehicle was intragastrically administered once a day for 8 consecutive weeks. […]
After 8 weeks of administration, samples were obtained from the mice: the ectopic lesion volume (V2) was measured using a vernier caliper and calculated. The inhibition rate was calculated using a calculation formula of: ectopic lesion volume V=π/6×length×width×height, wherein length represents the length of an ectopic lesion, width represents the width of an ectopic lesion, and height represents the height of an ectopic lesion;

[3] = Pharmacokinetic evaluation in mice (plasma); assay type: in vivo; conditions: mouse, male CD-1 mice
Protocol: Objective of assay: To study the in vivo pharmacokinetic properties of the compound of the present disclosure in mice.
Each assay compound was mixed with DMAC respectively, and vortexed for 2 minutes. The solution of the assay compound in DMAC was mixed and vortexed for 2 minutes to prepare a clear solution of 10 mg/mL. 0.0600 mL of 10 mg/mL solution was added to 0.300 mL of Solutol, and the mixture was vortexed for 2 minutes. Then 2.400 mL of normal saline was added, and the mixture was vortexed for 2 minutes to obtain a clear solution of 0.2 mg/mL, which was used for administration in PO group, 0.500 mL of the solution for administration in PO group was vortexed for 2 minutes, and 0.0500 mL of DMAC was added. The mixture was vortexed for 2 minutes, and then 0.0500 mL of solutol was added. The mixture was vortexed for 2 minutes, and finally 0.400 mL of normal saline was added. The mixture was vortexed for two minutes to give a clear solution of 0.1 mg/mL, which was filtered through a microporous membrane to give a solution for administration in injection (IV) group.
Four male CD-1 mice were divided into two groups. The animals in the first group were administered intravenously once at a dose of 0.5 mg/kg, wherein the vehicle was 10% DMAC/10% Solutol/80% normal saline, and the administration volume was 5 mL/kg. The animals in the second group were administered orally 2 mg/kg of the assay compound by oral gavage, wherein the oral vehicle was 10% DMAC/10% Solutol/80% normal saline, and the oral volume was 10 mL/kg. Whole blood was collected at 0.033 (IV injection only), 0.083, 0.25, 0.5, 1, 2, 4 and 12 hours post-dose. The whole blood was centrifuged at 3200 g at 2-8° C. for 10 min to obtain plasma. The concentration of the assay compound in plasma was determined by ILC/MS/MS method, and the pharmacokinetic parameters were calculated by Phoenix WinNonlin software.
The parameters have the following meanings: IV: intravenous injection; PO: oral administration; C0: initial plasma drug concentration; Cmax: maximum drug concentration in systemic circulation; Tmax: time required to reach Cmax; T1/2: half-life; Vdss: apparent volume of distribution; Cl: clearance rate; AUC0-last: area under the drug-time curve.

human gonadotropin-releasing hormone receptor, sequence (P30968 whole entry): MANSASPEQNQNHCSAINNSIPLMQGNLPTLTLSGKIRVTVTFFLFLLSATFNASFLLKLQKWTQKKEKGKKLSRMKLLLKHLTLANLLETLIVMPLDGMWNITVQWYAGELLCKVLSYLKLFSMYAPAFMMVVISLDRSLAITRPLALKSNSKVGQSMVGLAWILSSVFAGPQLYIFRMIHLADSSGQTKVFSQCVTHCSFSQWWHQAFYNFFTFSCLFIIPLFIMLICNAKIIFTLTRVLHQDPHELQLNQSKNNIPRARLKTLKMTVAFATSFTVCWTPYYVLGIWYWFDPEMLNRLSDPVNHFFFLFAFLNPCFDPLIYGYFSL

O=C(O)c1scc2[nH]c(=O)n(-c3cc4c(cc3F)OCCCOc3ccc(F)c(F)c3CO4)c(=O)c12 [Compound 1]
IC50 [1]: 3.2 nM | Volume of endometriotic lesion in mice V1 ([2]; Mean ± SD, n = 6, 4 weeks after modeling, before administration (baseline)): 9.89 ± 1.51 mm^3 | Volume of endometriotic lesion in mice V2 ([2]; Mean ± SD, n = 6, after 8 weeks of 100 mpk intragastric once daily): 6.78 ± 4.46 mm^3 | Inhibition rate ([2]; ectopic lesion volume, 100 mpk intragastric once daily for 8 weeks): 107.5% | AUC(0-t) ([3]; IV 0.5 mg/kg): 48.3 µM·h | C0 ([3]; IV 0.5 mg/kg): 13.5 µM | clearance ([3]; IV 0.5 mg/kg): 0.332 mL/min/kg | half-life ([3]; IV 0.5 mg/kg): 5.66 h | Vd ([3]; IV 0.5 mg/kg, read-out: Vdss): 0.159 L/kg | bioavailability ([3]; PO 2 mg/kg vs IV 0.5 mg/kg): 95.3% | AUC(0-t) ([3]; PO 2 mg/kg): 143 µM·h | Cmax ([3]; PO 2 mg/kg): 25.8 µM | Tmax ([3]; PO 2 mg/kg): 0.5 h | half-life ([3]; PO 2 mg/kg): 5.03 h
